Each molecule was assayed against T1, PDK-1 (Homo sapiens, UniProt O15530) (assay: PDK-1 kinase inhibition ELISA assay (phosphorylation of His6-tagged SGK1 S422D by PDK-1)). Conditions: not given.
T1 sequence (O15530 1-556): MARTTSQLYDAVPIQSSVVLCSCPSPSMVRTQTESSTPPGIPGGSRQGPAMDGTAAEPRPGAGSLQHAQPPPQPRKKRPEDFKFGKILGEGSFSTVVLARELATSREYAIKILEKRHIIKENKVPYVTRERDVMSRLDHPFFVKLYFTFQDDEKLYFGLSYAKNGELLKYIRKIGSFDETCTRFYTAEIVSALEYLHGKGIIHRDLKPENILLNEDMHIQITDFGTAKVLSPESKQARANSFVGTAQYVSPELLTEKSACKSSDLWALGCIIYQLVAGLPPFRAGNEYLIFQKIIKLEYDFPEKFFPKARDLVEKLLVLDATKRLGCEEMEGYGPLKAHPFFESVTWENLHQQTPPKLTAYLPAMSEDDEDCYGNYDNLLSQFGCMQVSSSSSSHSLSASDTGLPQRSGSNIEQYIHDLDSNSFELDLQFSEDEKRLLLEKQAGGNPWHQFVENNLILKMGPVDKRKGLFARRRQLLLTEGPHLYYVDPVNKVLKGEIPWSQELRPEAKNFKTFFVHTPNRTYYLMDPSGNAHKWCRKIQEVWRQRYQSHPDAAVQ
Assay type: biochemical

Structure (SMILES) | IC50 [nM]
COc1cc2ncc3c(N)nc(-c4cncc(Nc5ccccc5CCO)c4)cc3c2cc1OC [Ib-197, 2-(2-{[5-(4-amino-8,9-dimethoxybenzo[c][2,7]naphthyridin-2-yl)pyridin-3-yl]amino}phenyl)ethanol] | 24
COCCNc1cc2c(cnc3cc(OCCOC)c(OC)cc32)c(N)n1 [Ia-55, 9-methoxy-8-(2-methoxyethoxy)-N^2-(2-methoxyethyl)benzo[c]-2,7-naphthyridine-2,4-diamine] | 7490

Same assay, conditions: PDK-1 ELISA, Table 11; read-out: Average IC50

Structure (SMILES) | IC50 [nM]
COc1cc2ncc3c(N)nc(-c4cncc(Nc5ccccc5C#N)c4)cc3c2cc1OC [Ib-178, 2-{[5-(4-amino-8,9-dimethoxybenzo[c][2,7]naphthyridin-2-yl)pyridin-3-yl]amino}benzonitrile] | 105
CNC(=O)c1ccccc1Nc1cncc(-c2cc3c(cnc4cc(OC)c(OC)cc43)c(N)n2)c1 [Ib-187, 2-{[5-(4-amino-8,9-dimethoxybenzo[c][2,7]naphthyridin-2-yl)pyridin-3-yl]amino}-N-methylbenzamide] | 110
COc1cc2ncc3c(N)nc(-c4cncc(OCC(=O)c5ccccc5)c4)cc3c2cc1OC [Ib-267, 2-{[5-(4-amino-8,9-dimethoxybenzo[c][2,7]naphthyridin-2-yl)pyridin-3-yl]oxy}-1-phenylethanone] | 798
CCN(Cc1ccncc1)C[C@H](N)COc1cncc(-c2cc3c(cnc4cc(OC)c(OC)cc43)c(N)n2)c1 [Ib-21, (2S)-3-{[5-(4-amino-8,9-dimethoxybenzo[c]-2,7-naphthyridin-2-yl)pyridin-3-yl]oxy}-N1-ethyl-N1-(pyridin-4-ylmethyl)propane-1,2-diamine] | 7
COc1cc2ncc3c(N)nc(-c4cncc(OC[C@@H](N)CNCC5CCCCC5)c4)cc3c2cc1OC [Ib-95, (2S)-3-{[5-(4-amino-8,9-dimethoxybenzo[c][2,7]naphthyridin-2-yl)pyridin-3-yl]oxy}-N1-(cyclohexylmethyl)propane-1,2-diamine] | 53
COc1cc2c(cc1N1CCOCC1)ncc1c(N)nc(-c3cncc(OC[C@@H](N)Cc4ccccc4)c3)cc12 [Ia-39, 2-(5-{[(2S)-2-Amino-3-phenylpropyl]oxy}pyridin-3-yl)-9-methoxy-8-morpholin-4-ylbenzo[c]-2,7-naphthyridin-4-amine] | 59
COc1cc2ncc3c(N)nc(-c4cncc(OC[C@@H](N)CN5CCCC5)c4)cc3c2cc1OC [Ib-110, 2-(5-{[(2S)-2-amino-3-pyrrolidin-1-ylpropyl]oxy}pyridin-3-yl)-8,9-dimethoxybenzo[c][2,7]naphthyridin-4-amine] | 14
COc1cc2ncc3c(N)nc(-c4cncc(OC[C@@H](N)CSc5ncc(CO)n5C)c4)cc3c2cc1OC [Ib-167, (2-{[(2R)-2-amino-3-{[5-(4-amino-8,9-dimethoxybenzo[c][2,7]naphthyridin-2-yl)pyridin-3-yl]oxy}propyl]thio}-1-methyl-1H-imidazol-5-yl)methanol] | 5
COc1cc2ncc3c(N)nc(-c4cc(F)cc(C#N)c4)cc3c2cc1OC [Ib-241, 3-(4-amino-8,9-dimethoxybenzo[c][2,7]naphthyridin-2-yl)-5-fluorobenzonitrile] | 1000
COc1cc2ncc3c(N)nc(-c4cncc(OC[C@@H](N)CN(C)c5cccc(Cl)c5)c4)cc3c2cc1OC [Ib-112, (2S)-3-{[5-(4-amino-8,9-dimethoxybenzo[c][2,7]naphthyridin-2-yl)pyridin-3-yl]oxy}-N1-(3-chlorophenyl)-N1-methylpropane-1,2-diamine] | 40
COc1cc2ncc3c(N)nc(-c4cc(F)cc(CCCN)c4)cc3c2cc1OC [Ib-250, 2-(3-(3-Aminopropyl)-5-fluorophenyl)-8,9-dimethoxybenzo[c][2,7]naphthyridin-4-amine] | 34
COCCOc1cc2ncc3c(N)nc(N4CCC(C)CC4)cc3c2cc1OC [Ia-50, 9-methoxy-8-(2-methoxyethoxy)-2-(4-methylpiperidin-1-yl)benzo[c]-2,7-naphthyridin-4-amine] | 2440

Reference: patent US20080293712A1, “Benzo[C][2,7]Naphtyridine Derivatives, Methods of Making Thereof and Methods of Use Thereof” (WYETH, priority 2007, published 2008)
